In publication PMC11730591 (Scientific Reports, 2025):
“Also recorded” adds a separate entry of the source.

Experiments:
α-glucosidase [1] = target: T1, α-glucosidase (Saccharomyces cerevisiae, UniProt P53341); assay: In vitro α-glucosidase inhibition assay; assay type: biochemical; settings: for α-Glucosidase inhibitory activity described in words: SAR discussion
α-glucosidase [2] = target: T1, α-glucosidase; assay: Enzyme kinetic studies; assay type: biochemical

T1 sequence (P53341 whole entry): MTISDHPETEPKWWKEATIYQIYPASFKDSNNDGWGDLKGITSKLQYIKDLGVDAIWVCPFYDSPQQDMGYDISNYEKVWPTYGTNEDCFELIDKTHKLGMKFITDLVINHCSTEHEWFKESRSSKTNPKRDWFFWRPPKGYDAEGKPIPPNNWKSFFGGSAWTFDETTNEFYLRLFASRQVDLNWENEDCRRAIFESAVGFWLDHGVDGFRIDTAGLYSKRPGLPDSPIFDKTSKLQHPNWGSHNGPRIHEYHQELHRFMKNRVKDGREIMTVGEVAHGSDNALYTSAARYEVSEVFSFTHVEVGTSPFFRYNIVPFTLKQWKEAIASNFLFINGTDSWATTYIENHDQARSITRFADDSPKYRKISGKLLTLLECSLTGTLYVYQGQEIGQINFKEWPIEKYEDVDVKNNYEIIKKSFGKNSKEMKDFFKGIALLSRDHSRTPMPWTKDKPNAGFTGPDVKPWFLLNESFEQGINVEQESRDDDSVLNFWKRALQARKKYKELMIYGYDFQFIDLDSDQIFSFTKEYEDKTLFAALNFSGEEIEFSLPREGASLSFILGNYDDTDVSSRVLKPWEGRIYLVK

SMILES | α-Glucosidase inhibitory activity described in words (α-glucosidase [1]) | Fold improvement in activity compared to acarbose (α-glucosidase [1]; versus acarbose as positive control) | Ki (α-glucosidase [2]) | Type of inhibition (Lineweaver-Burk plot) (α-glucosidase [2]; Km increased, Vmax unchanged with increasing inhibitor concentration)
Cc1ccccc1NC(=O)CN1CCN(c2nc3ccccc3cc2/C=N/NC(N)=S)CC1 [Compound 7h, (E)-2-(4-(3-((2-carbamothioylhydrazono)methyl)quinolin-2-yl)piperazin-1-yl)-N-(o-tolyl)acetamide] | diminished activity | – | – | –
COc1ccc(CNC(=O)CN2CCN(c3nc4ccccc4cc3/C=N/NC(N)=S)CC2)cc1 [Compound 7n, (E)-2-(4-(3-((2-carbamothioylhydrazono)methyl)quinolin-2-yl)piperazin-1-yl)-N-(4-methoxybenzyl)acetamide] | poor activity | – | – | –
COc1ccc(OC)c(NC(=O)CN2CCN(c3nc4ccccc4cc3/C=N/NC(N)=S)CC2)c1 [Compound 7j, (E)-2-(4-(3-((2-carbamothioylhydrazono)methyl)quinolin-2-yl)piperazin-1-yl)-N-(2,5-dimethoxyphenyl)acetamide] | – | 15 fold | 32 µM | competitive inhibitor; also recorded: competitive inhibition
